According to patent US9796711B2, “Substituted pyrazolo[3,4-b]pyridin-6-carboxylic acids and method of use” (AbbVie S.àr.l., priority 2015, dated 2017):

Legend:
ΔF508-CFTR [1] = molecular target: T1, ΔF508-CFTR (Homo sapiens, UniProt P13569, DEL508-508); test: CFTR cell surface levels using HRP-tagged ΔF508-CFTR expressing CFBE cells, in the presence of a co-corrector; type: cell-based; conditions: HRP-tagged ΔF508-CFTR expressing CFBE cells, in the presence of 3 μM co-corrector; for EC50: read-out: EC50
T1 construct: host or cells: CFBE41o-, doxycycline-inducible
How it was run: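 Cells were seeded with 0.5 μg/mL doxycycline and held 68 h at 37 °C. Test compounds plus 3 μM co-corrector (final 0.1% DMSO) were then added for 20 h at 33 °C. Washed cells received HRP substrate, and luminescence was normalized between DMSO and 3 μM co-corrector controls.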

ΔF508-CFTR [2] = molecular target: T1, ΔF508-CFTR; test: CFTR cell surface levels using HRP-tagged ΔF508-CFTR expressing CFBE cells, intrinsic corrector capacity; type: cell-based; conditions: HRP-tagged ΔF508-CFTR CFBE41o- cells, compounds alone (intrinsic corrector capacity), 20 hours at 33° C.; for % Activation: positive control 3 μM corrector; for EC50: read-out: EC50
How it was run: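 Here the cells express ΔF508-CFTR with horseradish peroxidase inserted in extracellular loop 4, so only rescued channel at the surface gives luminescent signal. Compounds act on their own, 20 h at the reduced temperature of 33 °C; values are percent activity relative to DMSO and a 3 μM corrector.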

T1 sequence (P13569 with tags, fused parts or gaps DEL508-508): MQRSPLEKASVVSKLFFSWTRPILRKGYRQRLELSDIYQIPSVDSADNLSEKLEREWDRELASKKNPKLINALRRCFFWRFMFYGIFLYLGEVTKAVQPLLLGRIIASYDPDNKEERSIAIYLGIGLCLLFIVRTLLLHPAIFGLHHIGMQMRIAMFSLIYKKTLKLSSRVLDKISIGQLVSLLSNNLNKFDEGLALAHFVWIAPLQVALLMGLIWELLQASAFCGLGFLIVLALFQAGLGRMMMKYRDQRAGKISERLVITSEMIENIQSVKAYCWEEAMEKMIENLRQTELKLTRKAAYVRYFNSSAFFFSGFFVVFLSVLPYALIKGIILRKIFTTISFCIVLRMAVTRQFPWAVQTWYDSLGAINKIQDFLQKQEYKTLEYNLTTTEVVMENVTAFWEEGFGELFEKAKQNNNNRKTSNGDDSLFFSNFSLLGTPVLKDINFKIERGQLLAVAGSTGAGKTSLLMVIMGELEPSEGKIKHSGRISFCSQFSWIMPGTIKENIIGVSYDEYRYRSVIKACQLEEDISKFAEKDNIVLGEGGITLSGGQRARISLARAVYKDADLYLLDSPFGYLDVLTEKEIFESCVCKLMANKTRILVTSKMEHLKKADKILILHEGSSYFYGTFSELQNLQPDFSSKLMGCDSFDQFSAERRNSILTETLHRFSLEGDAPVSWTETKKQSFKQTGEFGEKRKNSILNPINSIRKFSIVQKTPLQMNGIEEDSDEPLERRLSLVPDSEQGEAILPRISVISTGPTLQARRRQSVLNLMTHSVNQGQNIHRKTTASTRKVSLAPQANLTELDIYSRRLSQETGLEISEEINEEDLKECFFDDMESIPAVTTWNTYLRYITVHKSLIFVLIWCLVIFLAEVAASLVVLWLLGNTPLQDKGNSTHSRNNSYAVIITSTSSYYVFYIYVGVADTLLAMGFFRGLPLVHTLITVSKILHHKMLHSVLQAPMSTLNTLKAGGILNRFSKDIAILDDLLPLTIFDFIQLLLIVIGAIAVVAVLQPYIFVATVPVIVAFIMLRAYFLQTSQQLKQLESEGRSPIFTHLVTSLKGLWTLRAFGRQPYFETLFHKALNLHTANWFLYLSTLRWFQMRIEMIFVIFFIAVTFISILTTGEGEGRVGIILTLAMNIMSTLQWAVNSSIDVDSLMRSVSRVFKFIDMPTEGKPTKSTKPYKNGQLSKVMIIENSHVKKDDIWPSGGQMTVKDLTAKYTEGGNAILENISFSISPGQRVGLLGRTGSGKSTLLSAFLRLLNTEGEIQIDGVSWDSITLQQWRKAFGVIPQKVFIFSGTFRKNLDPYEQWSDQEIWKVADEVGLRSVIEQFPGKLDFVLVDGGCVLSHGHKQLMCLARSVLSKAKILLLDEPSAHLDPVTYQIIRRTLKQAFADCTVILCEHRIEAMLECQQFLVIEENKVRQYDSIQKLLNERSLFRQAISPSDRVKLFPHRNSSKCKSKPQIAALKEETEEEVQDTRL

SMILES | % Activation (ΔF508-CFTR [1]) | EC50 (ΔF508-CFTR [1]) | % Activation (ΔF508-CFTR [2]) | EC50 (ΔF508-CFTR [2])
CC(C)c1nn(C2CCCC2)c2nc(C(=O)O)cc(-c3ccc(N4CCOCC4)nc3)c12 [compound 77, 1-cyclopentyl-4-[6-(morpholin-4-yl)pyridin-3-yl]-3-(propan-2-yl)-1H-pyrazolo[3,4-b]pyridine-6-carboxylic acid] | 343.4% | 1110 nM | 139.5% | 1170 nM
CC(=O)N1CC(c2nn(-c3ccccc3)c3nc(C(=O)O)cc(-c4ccc(N5CCOCC5)cc4)c23)C1 [compound 78, 3-(1-acetylazetidin-3-yl)-4-[4-(morpholin-4-yl)phenyl]-1-phenyl-1H-pyrazolo[3,4-b]pyridine-6-carboxylic acid] | 132% | > 10000 nM | 10.784% | > 10000 nM
CC(C)c1nn(-c2ccccc2)c2nc(C(=O)O)cc(-c3cnc(N4CCOCC4)nc3)c12 [compound 79, 4-[2-(morpholin-4-yl)pyrimidin-5-yl]-1-phenyl-3-(propan-2-yl)-1H-pyrazolo[3,4-b]pyridine-6-carboxylic acid] | 256.45% | 5280 nM | 195.9% | 697 nM
CC(C)c1nn(C2CCCCC2)c2nc(C(=O)O)cc(-c3cnc(N4CCOCC4)nc3)c12 [compound 80, 1-cyclohexyl-4-[2-(morpholin-4-yl)pyrimidin-5-yl]-3-(propan-2-yl)-1H-pyrazolo[3,4-b]pyridine-6-carboxylic acid] | 341.92% | 2930 nM | 184.8% | 611 nM
CC(C)c1nn(C2CCCCC2)c2nc(C(=O)O)cc(-c3ccc(N4CCOCC4)nc3)c12 [compound 81, 1-cyclohexyl-4-[6-(morpholin-4-yl)pyridin-3-yl]-3-(propan-2-yl)-1H-pyrazolo[3,4-b]pyridine-6-carboxylic acid] | 398.25% | 570 nM | 193.6% | 744 nM
Cc1nn(-c2ccccc2)c2nc(C(=O)O)cc(-c3ccc(N4CCN(CCC(F)(F)F)CC4)cc3)c12 [compound 82, 3-methyl-1-phenyl-4-{4-[4-(3,3,3-trifluoropropyl)piperazin-1-yl]phenyl}-1H-pyrazolo[3,4-b]pyridine-6-carboxylic acid] | 335.65% | 971 nM | 135.95% | 1010 nM
CC(C)c1nn(C2CCCC2)c2nc(C(=O)O)cc(-c3ccc(N(C)C)nc3)c12 [compound 83, 1-cyclopentyl-4-[6-(dimethylamino)pyridin-3-yl]-3-(propan-2-yl)-1H-pyrazolo[3,4-b]pyridine-6-carboxylic acid] | 332.65% | 1050 nM | 142.25% | 1470 nM
CC(C)c1nn(-c2cccc(N(C)C)c2)c2nc(C(=O)O)cc(-c3cnc(N4CCOCC4)nc3)c12 [compound 84, 1-[3-(dimethylamino)phenyl]-4-[2-(morpholin-4-yl)pyrimidin-5-yl]-3-(propan-2-yl)-1H-pyrazolo[3,4-b]pyridine-6-carboxylic acid] | 541.12% | 734 nM | 289.83% | 829 nM
CC(C)c1nn(-c2cccc(N(C)C)c2)c2nc(C(=O)O)cc(-c3ccc(N4CCOCC4)nc3)c12 [compound 85, 1-[3-(dimethylamino)phenyl]-4-[6-(morpholin-4-yl)pyridin-3-yl]-3-(propan-2-yl)-1H-pyrazolo[3,4-b]pyridine-6-carboxylic acid] | 504.7% | 702 nM | 314.6% | 920 nM
COC(=O)N1CC(c2nn(-c3ccccc3)c3nc(C(=O)O)cc(-c4ccc(N5CCOCC5)cc4)c23)C1 [compound 86, 3-[1-(methoxycarbonyl)azetidin-3-yl]-4-[4-(morpholin-4-yl)phenyl]-1-phenyl-1H-pyrazolo[3,4-b]pyridine-6-carboxylic acid] | 300.25% | 2550 nM | 129.75% | 3340 nM
CN(C)Cc1nn(-c2ccccc2)c2nc(C(=O)O)cc(-c3ccc(N4CCOCC4)cc3)c12 [compound 87, 3-[(dimethylamino)methyl]-4-[4-(morpholin-4-yl)phenyl]-1-phenyl-1H-pyrazolo[3,4-b]pyridine-6-carboxylic acid] | 148.9% | 3340 nM | 28.91% | > 10000 nM
CC(C)c1nn(-c2cccc(N3CCOCC3)c2)c2nc(C(=O)O)cc(-c3cnc(N(C)C)nc3)c12 [compound 88, 4-[2-(dimethylamino)pyrimidin-5-yl]-1-[3-(morpholin-4-yl)phenyl]-3-(propan-2-yl)-1H-pyrazolo[3,4-b]pyridine-6-carboxylic acid] | 453.15% | 525 nM | 288.95% | 693 nM
Cc1nn(-c2cccc(N(C)C)c2)c2nc(C(=O)O)cc(-c3cnc(N4CCOCC4)nc3)c12 [compound 90, 1-[3-(dimethylamino)phenyl]-3-methyl-4-[2-(morpholin-4-yl)pyrimidin-5-yl]-1H-pyrazolo[3,4-b]pyridine-6-carboxylic acid] | 367.15% | 883 nM | 169.65% | 1040 nM
CN(C)c1ncc(-c2cc(C(=O)O)nc3c2c(C(C)(C)C)nn3C2CCCC2)cn1 [compound 91, 3-tert-butyl-1-cyclopentyl-4-[2-(dimethylamino)pyrimidin-5-yl]-1H-pyrazolo[3,4-b]pyridine-6-carboxylic acid] | 176.6% | 3340 nM | 43.54% | 3340 nM
CC(C)(CO)c1nn(-c2ccccc2)c2nc(C(=O)O)cc(-c3ccc(N4CCOCC4)nc3)c12 [compound 92, 3-(1-hydroxy-2-methylpropan-2-yl)-4-[6-(morpholin-4-yl)pyridin-3-yl]-1-phenyl-1H-pyrazolo[3,4-b]pyridine-6-carboxylic acid] | 99.81% | > 10000 nM | 2.873% | > 10000 nM
CC(C)c1nn(C2CCCCC2)c2nc(C(=O)O)cc(-c3ccc(N(C)C)nc3)c12 [compound 93, 1-cyclohexyl-4-[6-(dimethylamino)pyridin-3-yl]-3-(propan-2-yl)-1H-pyrazolo[3,4-b]pyridine-6-carboxylic acid] | 379.57% | 491 nM | 175.6% | 680 nM
Cc1nn(-c2ccn(C)c(=O)c2)c2nc(C(=O)O)cc(-c3ccc(N4CCOCC4)cc3)c12 [compound 94, 3-methyl-1-(1-methyl-2-oxo-1,2-dihydropyridin-4-yl)-4-[4-(morpholin-4-yl)phenyl]-1H-pyrazolo[3,4-b]pyridine-6-carboxylic acid] | 119.4% | > 10000 nM | 3.061% | > 10000 nM
CC(C)c1nn(C2CCN(CC#N)CC2)c2nc(C(=O)O)cc(-c3ccc(N4CCOCC4)cc3)c12 [compound 95, 1-[1-(cyanomethyl)piperidin-4-yl]-4-[4-(morpholin-4-yl)phenyl]-3-(propan-2-yl)-1H-pyrazolo[3,4-b]pyridine-6-carboxylic acid] | 145.4% | 3340 nM | 16.66% | > 10000 nM
Cc1nn(-c2ccccc2)c2nc(C(=O)O)cc(-c3ccc(NC4CCC4)cc3)c12 [compound 96, 4-[4-(cyclobutylamino)phenyl]-3-methyl-1-phenyl-1H-pyrazolo[3,4-b]pyridine-6-carboxylic acid] | 329.75% | 1200 nM | 141.5% | 1530 nM
Cc1nn(-c2ccccc2)c2nc(C(=O)O)cc(-c3ccc(N4CC(F)(F)C4)cc3)c12 [compound 97, 4-[4-(3,3-difluoroazetidin-1-yl)phenyl]-3-methyl-1-phenyl-1H-pyrazolo[3,4-b]pyridine-6-carboxylic acid] | 268% | 1160 nM | 96.51% | 1530 nM
Cc1nn(-c2ccccc2)c2nc(C(=O)O)cc(-c3ccc(N4CCN(CC#N)CC4)cc3)c12 [compound 98, 4-{4-[4-(cyanomethyl)piperazin-1-yl]phenyl}-3-methyl-1-phenyl-1H-pyrazolo[3,4-b]pyridine-6-carboxylic acid] | 350.65% | 834 nM | 165.8% | 1150 nM
Cc1nn(C2CCCCC2)c2nc(C(=O)O)cc(-c3ccc(N(C)C)nc3)c12 [compound 99, 1-cyclohexyl-4-[6-(dimethylamino)pyridin-3-yl]-3-methyl-1H-pyrazolo[3,4-b]pyridine-6-carboxylic acid] | 247.8% | 1100 nM | 80.69% | 1530 nM
CC(C)(C)c1nn(C2CCCC2)c2nc(C(=O)O)cc(-c3cnc(N4CCOCC4)nc3)c12 [compound 100, 3-tert-butyl-1-cyclopentyl-4-[2-(morpholin-4-yl)pyrimidin-5-yl]-1H-pyrazolo[3,4-b]pyridine-6-carboxylic acid] | 310% | 457 nM | 115.7% | 981 nM
